# Where two headings read alike, the source gives them in different places.
# How the values were obtained:
# GIPR = molecular target: T1, GIPR (Homo sapiens, UniProt P48546); test: cAMP accumulation, wild-type GIPR; type: cell-based; conditions: HEK-293T, 40 min, TR-FRET, mean ± S.E.M.
# T1 construct: expressed in transfected cells; host or cells: HEK-293T
# Experimental: (§1) HEK-293T cells were maintained at 37°C in 5% CO2 incubator and seeded onto 6-well cell […]
# (§2) culture plates before transfection. After overnight culture, the cells were transiently transfected […]
# (§3) with various constructs using Lipofectamine 2000 transfection reagent (Invitrogen). After 24 h, […]
# (§4) the transfected cells were seeded onto 384-microtiter plates at a density of 3,000 cells per well […]
# (§5) in stimulation buffer (HBSS supplemented with 5 mM HEPES, 0.1% (w/v) casein and 0.5 mM […]
# (§6) 3-isobutyl-1-methylxanthine). Different concentrations of retatrutide in stimulation buffer were […]
# (§7) added, and the stimulation lasted for 40 min. The reaction was stopped by addition of cAMP […]
# (§8) detection buffer containing Eu-cAMP tracer and ULight-anti-cAMP. Plates were then incubated for […]
# (§9) 60 min at RT. Time-resolved FRET signals were measured at 620 nm and 665 nm, respectively, by […]
# (§10) an EnVision multilabel plate reader (PerkinElmer). Data were analyzed in GraphPad PRISM 9.5 […]
# and all values were normalized to that of the wild-type (WT). […]
# (§11) accumulation was measured in wild-type (WT) and single-point mutated GLP-1R, GIPR or […]
# of the WT and dose-response curves were analyzed using a three-parameter logistic equation. […]
# curves were analyzed using a three-parameter logistic equation to obtain pEC50 and Emax values. […]
# (§12) way ANOVA was used to determine statistical difference. N.D., values that could not be determined due […]
# GIPR mutants [1] = molecular target: T2, GIPR mutants (Homo sapiens, UniProt P48546, E288T); test: cAMP accumulation, single-point mutated GIPR; type: cell-based; conditions: GIPR E288(45.52b)T, HEK-293T, 40 min, TR-FRET, mean ± S.E.M., n at least 3
# T2 construct: expressed in transfected cells; host or cells: HEK-293T
# Experimental: as §1, §2, §3, §4, §5, §6, §7, §8, §9, §10
# (§13) and all values were normalized to that of the wild-type (WT).
# (§14) Supplementary Fig. 5 Effects of receptor mutation on retatrutide-induced cAMP […]
# (§15) accumulation. a-c, Signaling profiles of GLP-1R (a), GIPR (b) and GCGR (c) mutants. cAMP […]
# as §11
# (§16) GCGR expressing HEK-293T cells. cAMP levels were normalized to the maximum response […]
# (§17) of the WT and dose-response curves were analyzed using a three-parameter logistic equation.
# (§18) Data were generated and graphed as means ± S.E.M. of at least three independent experiments performed in quadruplicate.
# (§19) (1 picture or pasted object on this page, not shown here)
# (§20) Supplementary Ta b l e S 5 Effects of the ligand-binding pocket residue mutation on retatrutide- […]
# (§21) induced cAMP signaling at GLP-1R, GIPR or GCGR. […]
# (§22) cAMP levels were normalized to the maximum response of the wild-type (WT) and dose-response […]
# (§23) curves were analyzed using a three-parameter logistic equation to obtain pEC50 and Emax values. The […]
# (§24) experiments were carried out independently at least three times. Data shown are means ± S.E.M. One- […]
# as §12
# (§25) to incomplete curve fits. *P< 0.05, **P< 0.01, ***P< 0.001 and ****P<0.0001.
# GIPR mutants [2] = molecular target: T3, GIPR mutants (Homo sapiens, UniProt P48546, P195K); test: cAMP accumulation, single-point mutated GIPR; type: cell-based; conditions: GIPR P195(2.72b)K, relative to WT; pEC50 and Emax N.D. (incomplete curve fits)
# T3 construct: expressed in transfected cells; host or cells: HEK-293T
# Experimental: as §1, §2, §3, §4, §5, §6, §7, §8, §9, §10, §13, §14, §15, §11, §16, §17, §18, §19, §20, §21, §22, §23, §24, §12, §25
# GIPR mutants [3] = molecular target: T4, GIPR mutants (Homo sapiens, UniProt P48546, R289A); test: cAMP accumulation, single-point mutated GIPR; type: cell-based; conditions: GIPR R289(ECL2)A, HEK-293T, 40 min, TR-FRET, mean ± S.E.M., n at least 3
# T4 construct: expressed in transfected cells; host or cells: HEK-293T
# Experimental: as §1, §2, §3, §4, §5, §6, §7, §8, §9, §10, §13, §14, §15, §11, §16, §17, §18, §19, §20, §21, §22, §23, §24, §12, §25
# GIPR mutants [4] = molecular target: T5, GIPR mutants (Homo sapiens, UniProt P48546, Y36A); test: cAMP accumulation, single-point mutated GIPR; type: cell-based; conditions: GIPR Y36(ECD)A; HEK-293T, 40 min, TR-FRET; mean ± S.E.M., n at least 3
# T5 construct: expressed in transfected cells; host or cells: HEK-293T
# Experimental: as §1, §2, §3, §4, §5, §6, §7, §8, §9, §10, §13, §14, §15, §11, §16, §17, §18, §19, §20, §21, §22, §23, §24, §12, §25
# GCGR mutants = molecular target: T6, GCGR mutants (Homo sapiens, UniProt P47871, Y138L); test: cAMP accumulation, single-point mutated GCGR; type: cell-based; conditions: GCGR Y138(1.36b)L, HEK-293T, 40 min, TR-FRET, mean ± S.E.M., n at least 3
# T6 construct: expressed in transfected cells; host or cells: HEK-293T
# Experimental: as §1, §2, §3, §4, §5, §6, §7, §8, §9, §10, §13, §14, §15, §11, §16, §17, §18, §19, §20, §21, §22, §23, §24, §12, §25
# [5] = cited from earlier work; for average weight loss: 12 mg dose group
# Source text: (§26) The most successful treatments currently available include glucagon-like peptide-1 (GLP-1) receptor agonists (GLP-1RAs), exemplified by semaglutide (approved in 2017, $19.9 billion sales in 2023)[3] and tirzepatide (approved in 2022, $5.3 billion sales in 2023)[4]. […] For humans, events were mild, such as 50 1 ascending (PMID: 4 months ...
# [6] = test system: C57/Bl6 diet-induced obese (DIO) mice; conditions: cited from earlier work
# Source text: as §26
# [7] = 12 mg, ref Jastreboff AM et al (supplement ref 19)
# [8] = ref Rosenstock J et al (supplement ref 20)
# [9] = C57/Bl6 DIO mice, ref Coskun T et al (supplement ref 17)
# T2 sequence (P48546 22-466 E288T): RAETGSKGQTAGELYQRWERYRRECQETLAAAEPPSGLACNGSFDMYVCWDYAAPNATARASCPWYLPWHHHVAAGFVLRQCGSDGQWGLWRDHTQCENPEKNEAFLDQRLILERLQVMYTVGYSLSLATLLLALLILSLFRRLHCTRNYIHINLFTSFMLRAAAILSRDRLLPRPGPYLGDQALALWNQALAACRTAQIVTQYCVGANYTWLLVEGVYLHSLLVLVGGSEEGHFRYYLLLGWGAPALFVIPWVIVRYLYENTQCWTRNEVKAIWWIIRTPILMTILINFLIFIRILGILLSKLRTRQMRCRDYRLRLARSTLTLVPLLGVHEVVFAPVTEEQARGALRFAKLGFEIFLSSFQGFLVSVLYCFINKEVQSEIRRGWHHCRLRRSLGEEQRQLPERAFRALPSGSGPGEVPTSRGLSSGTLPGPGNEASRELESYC
# T5 sequence (P48546 22-466 Y36A): as the sequence (P48546 22-466 E288T) above, with Y15A, T267E counted along it
# T4 sequence (P48546 22-466 R289A): as the sequence (P48546 22-466 E288T) above, with T267E, R268A counted along it
# T6 sequence (P47871 26-477 Y138L): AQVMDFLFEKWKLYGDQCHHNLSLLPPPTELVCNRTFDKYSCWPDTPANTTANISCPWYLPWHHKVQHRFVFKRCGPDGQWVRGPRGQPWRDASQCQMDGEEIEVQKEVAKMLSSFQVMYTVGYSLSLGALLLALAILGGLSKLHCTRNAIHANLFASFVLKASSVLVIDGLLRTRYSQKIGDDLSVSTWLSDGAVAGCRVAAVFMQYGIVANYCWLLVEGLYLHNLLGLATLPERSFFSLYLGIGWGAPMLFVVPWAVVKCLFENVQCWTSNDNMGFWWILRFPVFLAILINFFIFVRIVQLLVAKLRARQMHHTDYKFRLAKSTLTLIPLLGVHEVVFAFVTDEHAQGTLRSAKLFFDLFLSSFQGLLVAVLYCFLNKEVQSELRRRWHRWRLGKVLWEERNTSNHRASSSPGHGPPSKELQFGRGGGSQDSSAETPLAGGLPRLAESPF
# T1 sequence (P48546 22-466): as the sequence (P48546 22-466 E288T) above, with T267E counted along it
# T3 sequence (P48546 22-466 P195K): as the sequence (P48546 22-466 E288T) above, with P174K, T267E counted along it
compound,measurement,setting,value
CC[C@H](C)[C@H](NC(=O)[C@H](Cc1ccccc1)NC(=O)[C@H](C)NC(=O)C(C)(C)NC(=O)[C@H](CCC(N)=O)NC(=O)[C@H](C)NC(=O)[C@H](CCCCNC(=O)COCCOCCNC(=O)CC[C@H](NC(=O)CCCCCCCCCCCCCCCCCCC(=O)O)C(=O)O)NC(=O)[C@H](CCCCN)NC(=O)[C@H](CC(=O)O)NC(=O)[C@H](CC(C)C)NC(=O)[C@](C)(CC(C)C)NC(=O)[C@@H](NC(=O)[C@H](CO)NC(=O)[C@H](Cc1ccc(O)cc1)NC(=O)[C@H](CC(=O)O)NC(=O)[C@H](CO)NC(=O)[C@@H](NC(=O)[C@H](Cc1ccccc1)NC(=O)[C@@H](NC(=O)CNC(=O)[C@H](CCC(N)=O)NC(=O)C(C)(C)NC(=O)[C@@H](N)Cc1ccc(O)cc1)[C@@H](C)O)[C@@H](C)O)[C@@H](C)CC)C(=O)N[C@@H](CCC(=O)O)C(=O)N[C@@H](Cc1ccc(O)cc1)C(=O)N[C@@H](CC(C)C)C(=O)N[C@@H](CC(C)C)C(=O)N[C@@H](CCC(=O)O)C(=O)NCC(=O)NCC(=O)N1CCC[C@H]1C(=O)N[C@@H](CO)C(=O)N[C@@H](CO)C(=O)NCC(=O)N[C@@H](C)C(=O)N1CCC[C@H]1C(=O)N1CCC[C@H]1C(=O)N1CCC[C@H]1C(=O)N[C@@H](CO)C(N)=O [retatrutide],EC50,"GIPR; GIPR WT, at least 3 independent experiments in quadruplicate",2.29 pM
same,Emax ± S.E.M. (% WT),GIPR; n at least 3,100.00 ± 2.84 % WT
same,Emax ± S.E.M. (% WT),GIPR mutants [1],100.81 ± 2.93 % WT
same,EC50,GIPR mutants [1]; **P < 0.01,8.91 pM
same,change of GIPR-mediated cAMP accumulation by mutation,GIPR mutants [2],markedly decreased
same,Emax ± S.E.M. (% WT),GIPR mutants [3],98.56 ± 4.01 % WT
same,EC50,GIPR mutants [3]; ***P < 0.001,12.6 pM
same,EC50,GIPR mutants [4],3.09 pM
same,Emax ± S.E.M. (% WT),GIPR mutants [4],99.10 ± 3.86 % WT
same,Emax ± S.E.M. (% WT),GCGR mutants,100.64 ± 1.39 % WT
same,EC50,GCGR mutants; *P < 0.05,3.98 pM
same,participants with weight reduction of 5% or more,"[5]; 8 mg or 12 mg, ref Jastreboff AM et al (supplement ref 19)",All the participants
same,participants who lost 20% or more of baseline weight,[5]; [7],nearly two thirds
same,participants who lost 25% or more of baseline weight,[5]; [7],nearly half
same,participants who lost 30% or more of baseline weight,[5]; [7],a quarter
same,average weight loss,[5]; 24 weeks,17.5%
same,least-squares mean percentage change in body weight,"[5]; 24 weeks, 12-mg group, placebo –1.6%, ref Jastreboff AM et al (supplement ref 19)",–17.5%
same,least-squares mean percentage change in body weight,"[5]; 24 weeks, combined 4-mg group, placebo –1.6%, ref Jastreboff AM et al (supplement ref 19)",–12.9%
same,least-squares mean percentage change in body weight,"[5]; 24 weeks, combined 8-mg group, placebo –1.6%, ref Jastreboff AM et al (supplement ref 19)",–17.3%
same,participants who lost at least 15% of body weight (up to),"[5]; 36 weeks, ref Rosenstock J et al (supplement ref 20)",Up to 63%
same,average weight loss,[5]; 48 weeks,24.2%
same,least-squares mean percentage change in body weight,"[5]; 48 weeks, 12-mg group, placebo –2.1%, ref Jastreboff AM et al (supplement ref 19)",–24.2%
same,least-squares mean percentage change in body weight,"[5]; 48 weeks, combined 4-mg group, placebo –2.1%, ref Jastreboff AM et al (supplement ref 19)",–17.1%
same,least-squares mean percentage change in body weight,"[5]; 48 weeks, combined 8-mg group, placebo –2.1%, ref Jastreboff AM et al (supplement ref 19)",–22.8%
same,blood pressure,"[5]; dose-dependent, ref Rosenstock J et al (supplement ref 20)",reduction of blood pressure
same,frequency of gastrointestinal events by starting dose,[5]; in vivo,occurred more frequently
same,heart rate,[5]; in vivo,Dose-dependent increases
same,mitigation of gastrointestinal adverse events by lower starting dose,[5]; in vivo,partially mitigated
same,participants with gastrointestinal adverse events,[5]; in vivo,35%
same,safety profile,[5]; in vivo,safety profile comparable to certain approved GLP-1RAs
same,severity of most common (gastrointestinal) adverse events,[5]; in vivo,mild to moderate in severity
same,glycemic control,"[5]; phase 2, type 2 diabetes",significant improvements in glycemic control
same,weight reduction,"[5]; phase 2, type 2 diabetes",substantial weight reduction
same,glycemic control,[5]; [8],clinically improvements in glycemic control
same,non-HDL cholesterol,[5]; [8],reduction
same,reduction of triglycerides,[5]; [8],~ 35%
same,"ED50, body weight reduction",[6]; [9],4.73 nmol/kg
same,body weight and calorie intake,[6]; [9],dose-dependently reduced
same,body weight loss compared with tirzepatide,"[6]; obese mice, due to an increased energy expenditure through GCGR activation",greater body weight losses in obese mice than tirzepatide
